A short description of one data set: Rat pharmacokinetics, PO. Format: in vivo. The settings on record: male rat, PO 5 mg/kg oral gavage, plasma, Linear/log trapezoidal; read-out: Rat PO AUC0-t. The procedure: Formulations for PO. An appropriate amount of the test article is weighed and mixed with the appropriate volume of vehicle to get a clear solution or a uniform suspension, vortexing or sonication in water bath may used. Animals are dosed within four hours after the formulation is prepared.
Formulation samples are removed from each of the formulation solutions or suspensions, transferred into 1.5 mL of polypropylene microcentrifuge tubes and run dose validated by LC/UV or LC-MS/MS.
Dose administration. For PO dosing, the dose formulation is administered via oral gavage.
Blood Collection. Each blood collection (about 0.2 mL per time point) is performed from carotid artery cannula (CAC) of each animal into a pre-chilled commercial EDTA-K2 tubes as anti-coagulant, then placed on wet ice until centrifugation. Blood samples are processed for plasma by centrifugation at approximately 4° C., 3,200 g for 10 min. Plasma is collected respectively and a certain amount of plasma from rat is transferred into pre-labeled 96 well plate or polypropylene tubes, quick frozen over dry ice and kept at −60° C. or lower until LC-MS/MS analysis. After terminal collection, all plasmas are stored at approximately −80° C. freezer until final analysis.
Plasma concentration versus time data are plotted in graph and analyzed by non-compartmental approaches using the Phoenix WinNonlin 6.3 software program. Trapezoids: Before TMax (Linear); After Tmax (Log). Partial Area Interpolations: Before TMax (Linear); After Tmax (Log).

The target in a further data set is T1, IL-17A/A (Homo sapiens, UniProt Q16552).
T1 sequence (Q16552 24-155): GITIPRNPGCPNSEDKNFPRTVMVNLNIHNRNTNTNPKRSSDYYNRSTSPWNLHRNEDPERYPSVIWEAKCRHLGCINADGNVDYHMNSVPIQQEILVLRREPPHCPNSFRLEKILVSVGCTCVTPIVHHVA
Nature of the data set: IL-17A/A HEK-Blue Cell Assay. The conditions noted are these: HEK-Blue IL-17 reporter cells, IL-17A/A stimulation, 20 hours, SEAP readout; read-out: IL17 AA HEK-5 pIC50 (converted). Format: cell-based. A digest of the protocol:
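Cells co-expressing IL-17RA, IL-17RC and Act1 received titrated compound, top final 10 uM in 0.1% DMSO, immediately before IL-17A/A stimulation.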

Data set [1] can be described thus: Microsomal stability, human liver microsomes. It is filed as in vitro ADME. The settings on record: human liver microsomes 0.5 mg protein/mL, 1 μM test compound, NADPH, 37° C., 60 min; read-out: HLM Clint. The method, then:
(§1) Test compound and control working solution preparation. 5 μL of a compound and control stock solution (10 mM in dimethyl sulfoxide (DMSO)) were diluted with 495 μL of acetonitrile (ACN).
(§2) NADPH cofactor preparation. The appropriate amount of NADPH powder was weighed and diluted into a 10 mM MgCl2 solution (working solution concentration: 10 mM; final concentration in reaction system: 1 mM). Materials: NADPH powder: β-Nicotinamide adenine dinucleotide phosphate reduced form, tetrasodium salt; NADPHA4Na (Vendor: Chem-Impex International, Cat. No. 00616).
(§3) Liver Microsome Preparation. The appropriate concentrations of microsome working solutions were prepared in 100 mM potassium phosphate buffer. Materials: Human Liver Microsomes (HLM) Cat No. 452117 and Lot No. 38295 (Corning); SD Rat Liver Microsomes (RLM) Cat No. R1000 and Lot No. 1910100 (Xenotech).
(§4) Stop solution preparation. Cold (4° C.) acetonitrile (ACN) containing 200 ng/mL tolbutamide and 200 ng/mL labetalol as internal standards (IS) were used as the stop solution.
(§5) Assay Procedure. Empty incubation plates (T60 and NCF60) were warmed for 10 mins prior to use. Liver microsomes were diluted to 0.56 mg/mL in 100 mM phosphate buffer. 445 uL microsome working solutions (0.56 mg/mL) were transferred into pre-warmed ‘Incubation’ plates T60 and NCF60, Then ‘Incubation’ plates T60 and NCF60 were pre-incubated for 10 min at 37° C. with constant shaking. 54 μL liver microsomes were transferred to the blank plate, then 6 μL NAPDH cofactor were added to the blank plate, followed by the addition 180 μL quenching solution to the blank plate. 5 μL compound working solution (100 μM) were added into ‘incubation’ plates (T60 and NCF60) containing microsomes and mixed thoroughly 3 times. To the NCF60 plate 50 μL of buffer were added and mixed 3 times thoroughly. Start timing; plate was incubated at 37° C. for 60 min while shaking. In ‘Quenching’ plate TO, were added 180 μL quenching solution and 6 μL NAPDH cofactor. Plate is chilled to prevent evaporation. The T60 plate, was mixed 3 times thoroughly, and immediately 54 μL of the mixture was removed for the 0-min time point to ‘Quenching’ plate. Then 44 μL NAPDH cofactor was added to the incubation plate (T60). Start timing; plate was incubated at 37° C. for 60 min while shaking. Final concentrations of each component in the incubation media: Microsome (0.5 mg protein/mL); Test compound (1 μM); control compound ([…]); ACN (0.99%); and DMSO (0.01%). At 5, 15, 30, 45, and 60 min, 180 μL quenching solution was added to ‘Quenching’ plates, mixed once, and serially transferred 60 μL of sample from T60 plate per time point to ‘Quenching’ plates. For the NCF60 plate, mix once and 60 μL of sample was transferred from the NCF60 incubation to ‘Quenching’ plate containing quenching solution at the 60-min time point (Start time 1:00:00 and End Time 0:00:00).
(§6) All sampling plates were shaken for 10 min, then centrifuged at 4000 rpm for 20 minutes at 4° C. 80 μL of supernatant were transferred into 240 μL HPLC water, and mixed by plate shaker for 10 min. Each bioanalysis plate was sealed and shaken for 10 minutes prior to LC-MS/MS analysis.

Data set [2] can be described thus: Microsomal stability, rat liver microsomes. It is filed as in vitro ADME. The settings on record: SD rat liver microsomes 0.5 mg protein/mL, 1 μM test compound, NADPH, 37° C., 60 min; read-out: RLM Clint. The procedure: as §1, §2, §3, §4, §5, §6
On the technique in general: Liver microsomes are a subcellular fraction often used to study metabolism.

The target in a further data set is T2, IL-17A/F (Homo sapiens, UniProt Q16552+Q96PD4).
T2 sequence (Q16552 24-155): T1 sequence (Q16552 24-155)
T2 sequence (Q96PD4 31-163): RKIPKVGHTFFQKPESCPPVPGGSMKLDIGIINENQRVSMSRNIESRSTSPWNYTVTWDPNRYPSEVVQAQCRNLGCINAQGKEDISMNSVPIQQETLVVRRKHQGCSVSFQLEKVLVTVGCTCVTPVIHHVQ
Nature of the data set: IL-17A/F HEK-Blue Cell Assay. The settings on record: HEK-Blue IL-17 reporter cells, IL-17A/F stimulation, 20 hours, SEAP readout; read-out: IL17AF HEK Blue pIC50 (converted). It is filed as cell-based.

For `CCn1nccc1C(=O)N[C@H](C(=O)Nc1ccc([C@H](C)[C@@H](NC(=O)N(C)C2CC2)C(=O)N2CCN(C)CC2)cc1F)C(C1CC1)C1CC1` [Compound 225], in “Rat pharmacokinetics, PO”, the AUC(0-t) was under 500 ng·h/mL. The IC50 on IL-17A/A is under 10 nM. Further, the microsomal CLint at 1 μM is 50 to 150 µL/min/mg in data set [1] and over 20 µL/min/mg in data set [2].

`CCn1nccc1C(=O)N[C@H](C(=O)Nc1ccc([C@H](C)[C@@H](NC(=O)COC)C(=O)N2CCN(C)C(CF)C2)cc1F)C(C1CC1)C1CC1` (single isomer, unassigned) [Compound 298]: in the data set “Rat pharmacokinetics, PO”, the AUC(0-t) was over 1000 ng·h/mL. Besides, the IC50 at IL-17A/F was 10 to 100 nM; at IL-17A/A, under 10 nM. Moreover, the microsomal CLint at 1 μM was under 50 µL/min/mg in data set [1] and under 9.6 µL/min/mg in data set [2].

For `CCC(=O)N[C@@H](C(=O)N1CCN(C)[C@H](C)C1)[C@@H](C)c1ccc(NC(=O)[C@@H](NC(=O)C2(F)CC2)C(C2CC2)C2CC2)c(F)c1` [Compound 245], in the data set “Rat pharmacokinetics, PO”, the AUC(0-t) is over 1000 ng·h/mL. The IC50 on IL-17A/F is 100 to 10000 nM; at IL-17A/A, 10 to 100 nM. Also, the microsomal CLint at 1 μM was under 50 µL/min/mg in data set [1] and under 9.6 µL/min/mg in data set [2].

Turning to `CCC(=O)N[C@@H](C(=O)N1CCN(C)[C@H](C)C1)[C@@H](C)c1ccc(NC(=O)[C@@H](NC(=O)c2ccnn2CCF)C(C2CC2)C2CC2)c(F)c1` [Compound 217], in “Rat pharmacokinetics, PO”, the AUC(0-t) was under 500 ng·h/mL. Further, the IC50 on IL-17A/A is under 10 nM. Also, the microsomal CLint at 1 μM in data set [1] is under 50 µL/min/mg; in data set [2] it was under 9.6 µL/min/mg.

As to `CCC(=O)N[C@@H](C(=O)N1CCN(C)[C@H](C)C1)[C@@H](C)c1ccc(NC(=O)[C@@H](NC(=O)c2ccnn2CC)C(C2CC2)C2CC2)c(F)c1` [Compound 209], the AUC(0-t) in the data set “Rat pharmacokinetics, PO” is 500 to 1000 ng·h/mL. Also, the IC50 is 10 to 100 nM on IL-17A/F and under 10 nM on IL-17A/A. In addition, the microsomal CLint at 1 μM is 50 to 150 µL/min/mg in data set [1] and under 9.6 µL/min/mg in data set [2].

As for `CCC(=O)N[C@@H](C(=O)N1C[C@@H](C)N(C)[C@@H](C)C1)[C@@H](C)c1ccc(NC(=O)[C@@H](NC(=O)c2ccnn2CC)C(C2CC2)C2CC2)c(F)c1` [Compound 223], the AUC(0-t) in the data set “Rat pharmacokinetics, PO” is under 500 ng·h/mL. Further, the IC50 on IL-17A/A is under 10 nM. In addition, the microsomal CLint at 1 μM lay within 50 to 150 µL/min/mg in data set [1] and 9.6 to 20 µL/min/mg in data set [2].

`CCc1nonc1C(=O)N[C@H](C(=O)Nc1ccc([C@H](C)[C@@H](NC(C)=O)C(=O)N2CCN(C)[C@H](C)C2)cc1F)C(C1CC1)C1CC1` [Compound 214]: the AUC(0-t) in “Rat pharmacokinetics, PO” was under 500 ng·h/mL. Moreover, the IC50 at IL-17A/A is under 10 nM. In addition, the microsomal CLint at 1 μM was 50 to 150 µL/min/mg in data set [1] and 9.6 to 20 µL/min/mg in data set [2].

With `CCn1nccc1C(=O)N[C@H](C(=O)Nc1ccc([C@H](C)[C@@H](NC(=O)COC)C(=O)N2CCN(C)CC2)cc1F)C(C1CC1)C1CC1` [Compound 215], the AUC(0-t) in “Rat pharmacokinetics, PO” is over 1000 ng·h/mL. Besides, the IC50 at IL-17A/F and at IL-17A/A was 10 to 100 nM in each case. Besides, the values for the microsomal CLint at 1 μM in data set [1] and in data set [2] were 50 to 150 µL/min/mg and under 9.6 µL/min/mg, respectively.

`CCC(=O)N[C@@H](C(=O)N1C[C@@H](C)N(C)C[C@H]1C)[C@@H](C)c1ccc(NC(=O)[C@@H](NC(=O)c2ccnn2CC)C(C2CC2)C2CC2)c(F)c1` [Compound 212]: the AUC(0-t) in the data set “Rat pharmacokinetics, PO” is 500 to 1000 ng·h/mL. Besides, the IC50 at IL-17A/F was 10 to 100 nM; at IL-17A/A, under 10 nM. Also, the microsomal CLint at 1 μM in data set [1] is under 50 µL/min/mg; in data set [2], 9.6 to 20 µL/min/mg.

For `CCC(=O)N[C@@H](C(=O)N1CCN(C)CC1)[C@@H](C)c1ccc(NC(=O)[C@@H](NC(=O)c2ccnn2C(C)C)C(C2CC2)C2CC2)c(F)c1` [Compound 257], the AUC(0-t) in the data set “Rat pharmacokinetics, PO” fell in the range of 500 to 1000 ng·h/mL. Besides, the IC50 on IL-17A/A is under 10 nM. Besides, the microsomal CLint at 1 μM in data set [1] is 50 to 150 µL/min/mg; in data set [2], under 9.6 µL/min/mg.

In the case of `CCC(=O)N[C@@H](C(=O)N1CCN(C)[C@H](C)C1)[C@@H](C)c1ccc(NC(=O)[C@@H](NC(=O)c2ccnn2CC(F)F)C(C2CC2)C2CC2)c(F)c1` [Compound 232], the AUC(0-t) in the data set “Rat pharmacokinetics, PO” was under 500 ng·h/mL. In addition, on IL-17A/A, the IC50 was under 10 nM. The microsomal CLint at 1 μM in data set [1] was under 50 µL/min/mg; in data set [2] it was under 9.6 µL/min/mg.

Turning to `CCn1nccc1C(=O)N[C@H](C(=O)Nc1ccc([C@H](C)[C@@H](NC(=O)COC)C(=O)N2CCN(C)[C@H](C)C2)cc1F)C(C1CC1)C1CC1` [Compound 207], in the data set “Rat pharmacokinetics, PO”, the AUC(0-t) is over 1000 ng·h/mL. The IC50 was 10 to 100 nM on IL-17A/F and under 10 nM at IL-17A/A. Further, the results for the microsomal CLint at 1 μM in data set [1] and in data set [2] were 50 to 150 µL/min/mg and under 9.6 µL/min/mg, respectively.

Consider `CCC(=O)N[C@@H](C(=O)N1CCN(C)[C@@H](C)C1)[C@@H](C)c1ccc(NC(=O)[C@@H](NC(=O)c2ccnn2CC)C(C2CC2)C2CC2)c(F)c1` [Compound 213], for which the AUC(0-t) in “Rat pharmacokinetics, PO” lay in the range of 500 to 1000 ng·h/mL. The IC50 at IL-17A/F is 10 to 100 nM; at IL-17A/A, under 10 nM. In addition, the results for the microsomal CLint at 1 μM in data set [1] and in data set [2] were 50 to 150 µL/min/mg and under 9.6 µL/min/mg, respectively.
